Reference: patent publication US8242118B2, “Arylsulfonamide derivatives for use as CCR3 antagonists in the treatment of inflammatory and immunological disorders” (Axikin Pharmaceuticals Inc., priority 2001, dated 2012)

Experiments:
[1] = target: T1, Human CCR3 (Homo sapiens, UniProt P51677); assay: Calcium mobilization assay, eotaxin-stimulated; format: cell-based; details: human CCR3-transformed K562 cells, 10 nM eotaxin; compounds of about 40 to 90% purity; read-out: Activity grade Ca2+ (IC50 class)
T1 construct: The cloned CCR3 cDNA was constructed with pcDNA3 vector and transfected into a IC562 cell line; expressed in transfected cells
T1 sequence (P51677 1-355): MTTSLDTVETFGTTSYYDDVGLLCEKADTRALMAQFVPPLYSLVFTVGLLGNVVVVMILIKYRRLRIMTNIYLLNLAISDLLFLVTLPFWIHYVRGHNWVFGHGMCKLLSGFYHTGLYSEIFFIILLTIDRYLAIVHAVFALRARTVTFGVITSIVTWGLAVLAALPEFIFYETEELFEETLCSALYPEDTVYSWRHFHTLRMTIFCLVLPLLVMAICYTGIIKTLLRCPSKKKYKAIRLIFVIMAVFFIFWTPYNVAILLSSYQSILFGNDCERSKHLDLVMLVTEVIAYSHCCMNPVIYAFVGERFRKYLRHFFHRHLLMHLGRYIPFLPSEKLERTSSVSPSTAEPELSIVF
Outline: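 K562 cells transfected with human CCR3, pretreated 20–24 h with 5 mM sodium butyrate, loaded with Fluo-3AM. Compound added 10 min before stimulation with 10 nM (final) eotaxin; cytoplasmic calcium read over 60 s by FDSS, IC50 from inhibition curve.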

Structure (SMILES) | melting point | IC50 [1]
CC(C)(C)c1cc(Oc2ccc([N+](=O)[O-])cc2S(=O)(=O)N2CCNCC2)cc(C(C)(C)C)c1.Cl [Example 1-7] | 141 to 143 °C | > 10000 nM
COc1cc(Oc2cc(C)cc(C)c2)c(S(=O)(=O)N2CCNCC2)cc1[N+](=O)[O-].Cl [Example 1-47] | 188 °C | > 10000 nM
CC(=O)c1cccc(Oc2ccc([N+](=O)[O-])cc2S(=O)(=O)N2CCNCC2)c1.Cl [Example 1-31] | 77 °C | > 10000 nM
Cc1cc(Oc2ccc([N+](=O)[O-])cc2S(=O)(=O)N2CCNCC2)cc(C)c1Cl [Example 1-79] | 178 to 179 °C | < 1000 nM
Cc1ccc(C)c(Oc2ccc([N+](=O)[O-])cc2S(=O)(=O)N2CCNCC2)c1.Cl [Example 1-64] | 141 °C | < 1000 nM
Cl.O=[N+]([O-])c1ccc(Oc2cc(C(F)(F)F)cc(C(F)(F)F)c2)c(S(=O)(=O)N2CCNCC2)c1 [Example 1-6] | 188 to 191 °C | < 1000 nM
CC(C)c1cccc(Oc2ccc([N+](=O)[O-])cc2S(=O)(=O)N2CCNCC2)c1.Cl [Example 1-9] | 168 to 170 °C | < 1000 nM
Cc1cc(Oc2ccc([N+](=O)[O-])cc2S(=O)(=O)N2CCNCC2)ccc1Cl.Cl [Example 1-60] | 204 °C | 1000 to 10000 nM
Cl.O=[N+]([O-])c1ccc(Oc2cccc(C(F)(F)F)c2)c(S(=O)(=O)N2CCNCC2)c1 [Example 1-34] | 128 °C | < 1000 nM
Cc1cc(Oc2cc(Cl)cc(Cl)c2)c(S(=O)(=O)N2CCNCC2)cc1[N+](=O)[O-].Cl [Example 1-45] | 168 °C | < 1000 nM
Cl.O=[N+]([O-])c1cccc(Oc2ccc([N+](=O)[O-])cc2S(=O)(=O)N2CCNCC2)c1 [Example 1-38] | 150 °C | < 1000 nM
Cc1cc(C)cc(Oc2ccc(C(F)(F)F)cc2S(=O)(=O)N2CCNCC2)c1.Cl [Example 1-43] | 238 to 239 °C | < 1000 nM
Cl.O=[N+]([O-])c1ccc(Oc2cccc3ccccc23)c(S(=O)(=O)N2CCNCC2)c1 [Example 1-11] | 196 to 198 °C | < 1000 nM
CCCCc1ccccc1Oc1ccc([N+](=O)[O-])cc1S(=O)(=O)N1CCNCC1.Cl [Example 1-40] | 140 to 150 °C | < 1000 nM
Cc1cc(C)cc(Oc2ccccc2S(=O)(=O)N2CCNCC2)c1.Cl [Example 1-41] | 205 to 207 °C | 1000 to 10000 nM
CN(CCN1CCCCC1)S(=O)(=O)c1cc([N+](=O)[O-])ccc1Sc1cc(Cl)cc(Cl)c1 [Example 26-1, 2-[(3,5-dichlorophenyl)sulfanyl]-N-methyl-5-nitro-N-[2-(1-piperidinyl)ethyl]benzenesulfonamide] | 113 to 114 °C | < 1000 nM
Cl.O=[N+]([O-])c1ccc(Oc2cc(Cl)cc(Cl)c2)c(S(=O)(=O)N2CCNCC2)c1 [Example 1-33] | 260 to 264 °C | < 1000 nM
Cl.O=[N+]([O-])c1ccc(Oc2cc(Cl)cc(Cl)c2)c(S(=O)(=O)N2CCCNCC2)c1 [Example 1-91] | 261 to 263 °C | < 1000 nM
Cl.O=[N+]([O-])c1ccc(Oc2cc(Cl)cc(Cl)c2Cl)c(S(=O)(=O)N2CCNCC2)c1 [Example 1-86] | 188 to 189 °C | < 1000 nM
COc1ccccc1Oc1ccc([N+](=O)[O-])cc1S(=O)(=O)N1CCNCC1.Cl [Example 1-27] | 142 °C | < 1000 nM

Structure (SMILES) | melting point | IC50 [1]
Cc1cc(C)cc(Oc2cc(C(F)(F)F)ccc2S(=O)(=O)N2CCNCC2)c1.Cl [Example 1-46] | 250 to 251 °C | > 10000 nM
COc1cc(OC)cc(Oc2ccc([N+](=O)[O-])cc2S(=O)(=O)N2CCNCC2)c1.Cl [Example 1-5] | 211 to 213 °C | > 10000 nM
Cc1cc(C)cc(Oc2ccc([N+](=O)[O-])cc2S(=O)(=O)N2CC(C)NCC2C)c1.Cl (stereo not drawn) [Example 1-54] | 159 °C | < 1000 nM
Cc1cc(C)cc(Oc2ccc(NC(=O)Cc3ccccc3)cc2S(=O)(=O)N2CCNCC2)c1 [Example 7-1, N-[4-(3,5-dimethylphenoxy)-3-(1-piperazinylsulfonyl)phenyl]-2-phenylacetamide] | 228 to 230 °C | > 10000 nM
Cl.O=S(=O)(c1cc(Cl)ccc1Oc1cc(Cl)cc(Cl)c1)N1CCNCC1 [Example 1-56] | 255 to 257 °C | < 1000 nM
Cl.O=S(=O)(c1cc(Br)ccc1Oc1cc(Cl)cc(Cl)c1)N1CCNCC1 [Example 1-57] | 269 to 271 °C | < 1000 nM
Cl.N[C@H]1CCN(S(=O)(=O)c2cc([N+](=O)[O-])ccc2Oc2cc(Cl)cc(Cl)c2)C1 [Example 1-100] | 256 to 258 °C | < 1000 nM
Cc1ccc(C)c(Oc2ccc([N+](=O)[O-])cc2S(=O)(=O)N2CCNCC2)c1C.Cl [Example 1-61] | 220 °C | 1000 to 10000 nM
CC(=O)c1ccccc1Oc1ccc([N+](=O)[O-])cc1S(=O)(=O)N1CCNCC1.Cl [Example 1-30] | 194 to 200 °C | > 10000 nM
Cc1cc(C)cc(Oc2cc(C)c([N+](=O)[O-])cc2S(=O)(=O)N2CCNCC2)c1.Cl [Example 1-44] | 159 °C | 1000 to 10000 nM
COc1cc(C)cc(Oc2ccc([N+](=O)[O-])cc2S(=O)(=O)N2CCNCC2)c1.Cl [Example 1-37] | 113 °C | < 1000 nM
Cl.O=[N+]([O-])c1ccc(Oc2cc(F)cc(F)c2)c(S(=O)(=O)N2CCNCC2)c1 [Example 1-4] | 273 to 274 °C | < 1000 nM
Cl.O=[N+]([O-])c1ccc(Oc2c(F)c(F)cc(F)c2F)c(S(=O)(=O)N2CCNCC2)c1 [Example 1-74] | 104 °C | < 1000 nM
Cc1cc(Oc2ccc([N+](=O)[O-])cc2S(=O)(=O)N2CCNCC2)cc(C(C)C)c1.Cl [Example 1-8] | 182 to 185 °C | < 1000 nM
Cc1ccc(Oc2ccc([N+](=O)[O-])cc2S(=O)(=O)N2CCNCC2)cc1C.Cl [Example 1-63] | 142 °C | < 1000 nM
Cl.O=[N+]([O-])c1ccc(Oc2cc(Cl)cc(Cl)c2F)c(S(=O)(=O)N2CCNCC2)c1 [Example 1-77] | 263 °C | < 1000 nM
O=C(O)C1CNCCN1S(=O)(=O)c1cc([N+](=O)[O-])ccc1Oc1cc(Cl)cc(Cl)c1 (stereo not drawn) [Example 1-87] | 240 to 241 °C | < 1000 nM
Cc1cccc(Oc2ccc([N+](=O)[O-])cc2S(=O)(=O)N2CCNCC2)c1C.Cl [Example 1-62] | 142 °C | < 1000 nM
Cl.O=[N+]([O-])c1ccc(Oc2cccc(Br)c2)c(S(=O)(=O)N2CCNCC2)c1 [Example 1-39] | 119 °C | < 1000 nM
